Assay results published in US5466716A, “Liposomal trimethylsphingosine” (The Biomembrane Institute, priority 1994, dated 1995).
Entries after “also recorded” stand apart in the source; their conditions may differ. Like-named read-outs stand apart in the source and are kept apart here.

How the values were obtained:
Assay type in all cases: cell-based, human
[1] = neutrophil viability (trypan blue exclusion); settings: neutrophils
Method: (§1) The viability was evaluated by trypan blue exclusion assay. The cell
(§2) incubated at 37° C. for 10 min with effectors. The aliquot was
(§3) mixed with an equal amount of trypan blue solution and immediately counte
(§4) under a Nikon light microscope.

[2] = system: neutrophils; test: neutrophil viability (trypan blue exclusion); settings: for cytotoxic damage to neutrophils: 25 μM
Method: as §1, §2, §3, §4

[3] = system: 47 kDa and 65 kDa proteins; test: PMA-induced phosphorylation of 47 kDa and 65 kDa neutrophil proteins; settings: for phosphorylation of 47 kDa and 65 kDa proteins / time in which inhibitory effect on phosphorylation is observed: 15-45 μM; for phosphorylation of 47 kDa and 65 kDa proteins: PMA 1.5 μM; for time in which inhibitory effect on phosphorylation is observed: incubation
Method: Excess unbound components were removed by centrifugation and the pellets were resuspended in the same buffer, repeating twice. The cells then were divided into 7 treatment groups, each containing ≈1×10^7 cells in a total volume of 0.4 ml. […] Two minutes later, the reaction was terminated by adding 0.1 ml of Laemmli's sample buffer and 20 mM EDTA, followed by heating at 100° C. for 5 min. Aliquots were separated through 10% sodium dodecyl sulfate gels using known procedures. ^32 P incorporation was visualized by autoradiography.

[4] = system: phosphoinositide turnover; test: fMLP-induced phosphoinositide turnover in neutrophils (32P incorporation); settings: for activity at 5 µM: Homo sapiens, Neutrophil, Table VI, 5 μM effector plus fMLP, control 100, read-out: PIP labeling
Method: Amount of ^32 P in PIP and PIP2 was measured using TLC separation. The spots on TLC plates were scraped off and the radioactivity therein was measured with a Beckman scintillation counter. Each spot was compared as to intensity with the identical spot of the control sample.
After incubation, the cells were washed and resuspended in the same buffer at a concentration of 1×10^7 cells/ml. Each suspension (1 ml) then was pretreated with TMS, SPN or DMS, or equal volume of 50% ethanol, for 10 min at 37° C. Then keeping the same temperature, fMLP was added to a final concentration of 1.0 μM. Two minutes later, the reaction was terminated by adding 3.75 ml of chloroform/methanol (1:2) to each cell suspension, followed by sonication for 15 min. An additional 1.25 ml of chloroform, 1.25 ml of water and 50 μl of acetone were added and the total mixture was mixed and left overnight.
Following centrifugation of the mixture, the phospholipids were extracted by Folch's partition method, taking the lower phase from the cell lysate. […] The TLC plate was developed with control phospholipids, in a solvent comprising chloroform/methanol/4M NaOH at a ratio of 45:35:10 and containing 0.1% CDTA (trans-1,2-diaminocyclohexane-N,N,N',N'-tetraacetic acid) for 65 min at 37° C. The bands were identified by staining the control phospholipids with primuline and visualization under ultraviolet light. Autoradiography was performed with Kodak diagnostic film GBX-2 (Rochester N.Y.) by exposing overnight at 37° C.

[5] = system: GMP-140; test: GMP-140 expression on platelets (flow cytometry, mAb AC1.2)
Method: FIGS. 11A and 11B depict results of representative experiments assessing the percentage of platelets capable of binding an anti-GMP-140 antibody following exposure to various agents. The percentage binding activity was determined in a flow cytometer. SPN is sphingosine; H-7 is 1-(5-isoquinolinylsulfonyl)-2-methylpiperazine; Cal is calphostin-C; TMS is trimethylsphingosine; and DMS is dimethylsphingosine.
GMP-140 expression was determined by (i) flow cytometry with mAb AC1.2, which is directed to GMP-140 and obtained from Dr. Furie (Tufts Univ. Sch. Med., Boston, Mass.) and (ii) adhesion of HL60 cells on platelet-coated solid phase.
A suspension of platelets (1×10^8 /ml) in Tyrode's buffer was preincubated with inhibitor at pH 7.2, 37° C., for 5 minutes, then supplemented with activator, either thrombin (final concentration 1 U/ml) or phorbol 12-myristate 13-acetate (PMA (final concentration 10^-7 M), and the mixture was incubated at 37° C. for 10 minutes. Platelets were fixed with an equal volume of 2% (w/v) paraformaldehyde in PBS and washed 2 times with PBS containing 1% (w/v) BSA.
The paraformaldehyde-fixed platelets were incubated with 50 μl of mAb AC1.2 (2.5 μg/ml) at room temperature for 30 minutes. Platelets were washed 2 times with PBS containing 1% (w/v) BSA, supplemented with 50 μl of fluorescein isothiocyanate-labeled goat anti-mouse Ig (purchased from Tago Co., Burlingame, Calif.), incubated at room temperature for 30 minutes and again washed 2 times with PBS containing 1% (w/v) BSA. As a negative control, paraformaldehyde-fixed platelets were incubated with mouse IgG instead of mAb AC1.2 and treated as described above.
The platelets were analyzed in an Epics flow cytometer (Coulter Corp.) with suitable gating. To calculate the inhibitory effect of various reagents, the mean fluorescence intensity of resting platelets (obtained on incubation of platelets without activator) was subtracted from the value for the activated platelet sample.

[6] = system: HL60 cells; test: HL60 cell binding to activated platelets; settings: thrombin- and PMA-stimulated platelets
Method: FIGS. 12A and 12B depict results of representative experiments assessing the degree of HL60 binding to platelets. Platelets were exposed to inhibiting compounds (symbols are the same as in the legend to FIGS. 11A and 11B) and affixed to the wells of a microtiter plate. HL60 cells labelled with tritiated thymidine were introduced into the wells and the amount of bound radioactivity was assessed.
HL60 (a human promylelocytic cell line available from the ATCC under accession number CCL 240) adhesion on resting or activated platelet-coatedsolid phase was evaluated as follows. Each well of a 48-well plate (Costar Scientific, Cambridge, Mass.) was filled with a poly-L-lysine solution (100 μg/ml in PBS) and incubated for 1 hour. Each well then was washed with PBS and then 150 μl of PBS containing 6×10^7 resting or activated platelets were added to each well and the plate was incubated for 1 hour. Plates were centrifuged (300×g for 7 minutes) and incubated a further 30 minutes at room temperature. Bound platelets were fixed by addition of 0.1% (w/v) glutaraldehyde in PBS for 2 minutes at 4° C. Each well was washed with 10 mM glycine in PBS and plates were incubated with 5% (w/v) BSA containing 0.1% (w/v) sodium azide, 10 mM glycine in PBS for 1 hour at room temperature.
After washing with culture medium (RPMI 1640 containing 5% (v/v) FCS), 1×10^6 HL60 cells labeled with [^3 H]thymidine were added to each well. HL60 was maintained in RPMI 1640 medium (purchased from Irvine Scientific, Santa Ana, Calif.) supplemented with 10% FCS (Hyclone, Logan, Utah). (Radiolabeling of HL60 cells used for cell adhesion assays was performed by incubating cells with 2 μCi/ml of [^3 H]thymidine overnight.) After incubation for 45 minutes at room temperature, unbound cells were aspirated and wells were washed once with medium (RPMI 1640 containing 5% (v/v) FCS), bound cells were detached with 0.05% (w/v) trypsin-0.02% (w/v) EDTA (Irvine Scientific) in PBS and the levels of radioactivity in each well were determined in a liquid scintillation counter.

[7] = Table III, control 94, read-out: Viability

Compound `CCCCCCCCCCCCC/C=C/[C@@H](O)[C@H](CO)N(C)C` [DMS, (4E)-N,N-dimethyl-D-erythro-sphingosine] has a cytotoxicity at 10 min, 15 µM [1] of 12 to 13%, a viability at 10 min, 5 µM ([1]; Table V, 37° C., 10 min) of 96 ± 3% and a viability at 10 min, 15 µM ([1]; Table V, 37° C., 10 min, read-out: Viability of neutrophils) of 88 ± 8%. The viability at 10 min, 25 µM ([1]; Table V, 37° C., 10 min) was 29 ± 5%, the viability at 10 min, 45 µM ([1]; Table V, 37° C., 10 min) was 0% and the “cytotoxic damage to neutrophils” value [2] was “major cytotoxic damage to neutrophils”. The “phosphorylation of 47 kDa and 65 kDa proteins” value [3] was “diminished significantly”, the “time in which inhibitory effect on phosphorylation is observed” value (from here on “time in which inhibitory effect”) [3] was ≤ 2 min and the activity at 5 µM [4] was 146 ± 27%. For the same compound, the “inhibition of GMP-140 expression” value ([5]; PMA-induced, 10-20 μM) was “strongly inhibited GMP-140 expression”, the “inhibition of GMP-140 expression” value ([5]; thrombin-induced, FIG. 11A) was “strongly inhibited thrombin-induced GMP-140 expression” and the “inhibition of HL60 cell binding” value [6] was “inhibited strongly”.
With `CCCCCCCCCCCCC/C=C/[C@@H](O)[C@@H](N)CO` [SPN, sphingosine] the cytotoxicity at 10 min, 15 µM [1] was 12 to 13%, the viability at 10 min, 15 µM [1, 7] was 87 ± 5.3% and the viability at 10 min, 5 µM ([1]; Table V, 37° C., 10 min) was 95 ± 3%. For the same compound, the viability at 10 min, 25 µM ([1]; Table V, 37° C., 10 min) was 53 ± 18%, the viability at 10 min, 45 µM ([1]; Table V, 37° C., 10 min) was 5 ± 5% and the “cytotoxic damage to neutrophils” value [2] was “major cytotoxic damage to neutrophils”. The “phosphorylation of 47 kDa and 65 kDa proteins” value [3] was “diminished significantly”, the “time in which inhibitory effect” value [3] was ≤ 2 min and the activity at 5 µM [4] was 174 ± 37%. The “inhibition of GMP-140 expression” value ([5]; PMA-induced, FIG. 11B) was “Neither SPN nor H-7 showed inhibition”, the “inhibition of GMP-140 expression” value ([5]; thrombin-induced, FIG. 11A) was “no inhibition” and the “inhibition of HL60 cell binding” value [6] was “minimally inhibited”.
With `CCCCCCCCCCCCC/C=C/[C@@H](O)[C@H](CO)[N+](C)(C)C` [TMS, N,N,N-trimethylsphingosine] the viability at 10 min, 15 µM [1, 7] was 97 ± 2.9%, the viability at 10 min, 5 µM ([1]; Table V, 37° C., 10 min) was 98 ± 2% and the viability at 10 min, 25 µM ([1]; Table V, 37° C., 10 min) was 83 ± 6%. The viability at 10 min, 45 µM ([1]; Table V, 37° C., 10 min) was 63 ± 8%, the cell cytotoxicity ([2]; 15 μM) was “no significant cell cytotoxicity” and the “cell viability during transmigration” value ([2]; 15 μM) was “without affecting the viability of the cells”. The “cytotoxic damage to neutrophils” value [2] was “negligible”, the cell viability ([2]; Examples 9 and 10) was “without an adverse effect on cell viability; also recorded: without effecting cell viability” and the “phosphorylation of 47 kDa and 65 kDa proteins” value [3] was “diminished significantly”. For the same compound, the “phosphorylation of specific proteins related to protein kinase C” value ([3]; Example 7) was “had an affect on phosphorylation of specific proteins”, the “time in which inhibitory effect” value [3] was ≤ 2 min and the “suppression of fMLP-dependent enhancement of 32P incorporation into PI, PIP and PIP2” value ([4]; 5 μM, fMLP 1 μM) was “suppressed strongly”. For the same compound, the “fMLP induced phosphorylation of phosphotidyl inositols” value ([4]; Example 8) was “suppressed”, the activity at 5 µM [4] was 127 ± 19% and the “inhibition of GMP-140 expression” value ([5]; PMA-induced, 10-20 μM) was “strongly inhibited GMP-140 expression”. For the same compound, the GMP-140 expression ([5]; platelets preincubated with TMS) was “inhibits GMP-140 expression; also recorded: down-regulated or blocked”, the “inhibition of GMP-140 expression” value ([5]; thrombin-induced, 10-20 μM) was “strongly inhibited GMP-140 expression” and the “inhibition of HL60 cell binding” value [6] was “inhibited strongly”.
For Calphostin C, the Viability ([2]; Table III, 5 μM, control 94, 10 min) was 46 ± 5.5 and the “inhibition of GMP-140 expression” value ([5]; thrombin-induced, 10-20 μM) was “weak inhibition”.
